The values that follow come from publication PMC7062083, “Metabolite identification, tissue distribution, excretion and preclinical pharmacokinetic studies of ET-26-HCl, a new analogue of etomidate” (Royal Society Open Science, 2020).

Series [1] can be described thus: Identification of major metabolites in liver microsomes (UPLC-Q-TOF-MS). The series is classed as in vitro ADME, mouse, rat, beagle dog, monkey and human. As to conditions: 10 µM ET-26-HCl, 1 mg ml^−1 liver microsomes, NADPH, 1 h. The protocol: The major metabolites of ET-26-HCl in liver microsomes from mouse, rat, beagle dog, monkey and human were determined by the UPLC-Q-TOF-MS system.
Reaction mixture containing 10 µM ET-26-HCl, […] MgCl2 and 1 mg ml^−1 liver microsomes in Tris-HCl phosphate buffer (pH 7.4) was pre-incubated for 6 min at 37°C, followed by the addition of NADPH. After incubation for 1 h, methanol was added to stop the reaction. Samples were centrifuged at 11 000 r.p.m. for 5 min; supernatants were collected and air dried at 40°C. Residues were dissolved in 100 µl acetonitrile/water (1:1, v/v) and analysed by the UPLC-Q-TOF-MS.
The UPLC-Q-OF-MS system was equipped with a Waters Synapt G2-Si quadrupole time-of-flight mass spectrometer (Q-TOF-MS), an ESI source and an ACQUITY UPLC H-CLASS liquid chromatography system. The chromatographic separations were achieved on an ACQUITY UPLC BEH C18 column (2.1 × 100 mm, i.d. 1.7 µm, Waters, USA) kept at 45°C and a flow rate of 0.4 ml min^−1. The mobile phase consisted of 5 mM ammonium acetate with 0.1% formic acid (A) and acetonitrile with 0.1% formic acid (B). The optimized gradient elution programme followed was 0 min to 2.1 min, A/B (19/1, v/v); 2.1 min to 7.3 min, A/B (1/4, v/v); 7.3 min to 8.0 min, A/B (1/9, v/v); and 8.0 min to 10 min, A/B (19/1, v/v). The injection volume was 5 µl. The mass experiment was operated in positive ion modes under the following parameters: turbo spray temperature, 120°C; ion spray voltage, 3.0 kV. Nitrogen was used as the nebulizer and the auxiliary gas; meanwhile, the nebulizer gas was set to 650 l h^−1 and kept at 350°C. The collision energy was set at 5–10 V and the collision energy spread was 4–6 V. TOF-MS was scanned with the mass range of m/z 50–600 with 200 ms accumulation time. A 400 ng ml^−1 leu-enkephalin (m/z 556.2771) was selected as an external standard for mass–charge ratio correction at a flow rate of 5 µl min^−1.

A short description of series [2]: Pharmacokinetics in beagle dogs after intravenous administration. The series is classed as in vivo. As to conditions: beagle dogs after i.v. ET-26-HCl. The procedure: (§1) Concentrations of ET-26-HCl and ET-26-acid in biological samples were determined by liquid chromatography–tandem mass spectrometry (LC–MS/MS) after deproteinization with methanol. The bioanalytical method for simultaneous quantification of ET-26-HCl and ET-26-acid in the different matrix was fully validated according to FDA guidelines (electronic supplementary material, figure S1 and tables S1 and S2) in our previous study. Briefly, a 100 µl sample (plasma, tissue homogenate, bile, urine and faeces suspension) were spiked with 20 µl of IS solution and vortexed for 30 s. The mixture was then processed for protein precipitation with 300 µl methanol, followed by centrifugation at 12 000 r.p.m. for 5 min. Supernatant was collected and analysed by LC–MS/MS system.
The LC–MS/MS was performed as described previously. Briefly, ET-26-HCl, ET-26-acid and GBP were separated using a CAPCELL PAK C18 column (50 × 2.00 mm, 5.00 µm) as well as a Security Guard Cartridge (C18, 4 mm × 3.00 mm i.d., Phenomenex). The mobile phase consisting of 0.3% formic acid water (A), and methanol (B) was pumped at a flow rate of 0.6 ml min^−1. The gradient elution was achieved according to the following protocol: 0 min to about 0.50 min, A/B (41/9, v/v); 0.51 min to about 1.5 min, A/B (1/9, v/v); and 1.51 min to about 2.00 min, A/B ([…], v/v). Mass spectrometry was conducted on an API 3000 mass spectrometer (Sciex, Framingham, MA, USA) equipped with an electrospray ionization (ESI) source operating in positive mode. The MS/MS system was in the multiple reaction monitoring (MRM) mode, using the m/z transitions of 275.6/170.9 for ET-26-HCl, 217.7/113.1 for ET-26-acid and 172.5/154.3 for GBP (IS), respectively. The API 3000 mass parameters were set according to the following protocol: curtain gas, 6 psi; collision gas, 8 psi; nebulizer, 4 psi; ion spray voltage, 3000 V and ion source temperature, 450°C. The autosampler was conditioned at 4°C, and the injection volume was 5 µl. The linear ranges of this analytical method for ET-26-HCl and for ET-26-acid from all biological samples are shown in electronic supplementary material, table S3.
Beagle dogs, weighing 9–11 kg, were purchased from Sichuan Industrial of Antibiotics, China National Pharmaceutical Group Corporation (Chengdu, China). A 3 × 3 crossover experimental design with 24 beagles (equal number of male and female dogs) randomly divided into six groups was conducted. Beagle dogs in the six groups received three doses of ET-26-HCl: 1.045 mg kg^−1, 2.090 mg kg^−1 and 4.180 mg kg^−1 as low (L), medium (M) and high (H) dose. Blood samples (2 ml) were collected from the elbow vein in 4 ml heparinized tubes before dosing, and at 1, 3, 5, 10, 20, 30, 120 and 180 min post-dosing. All blood samples were centrifuged at 8000 r.p.m. for 10 min and plasma collected and stored at −80°C until analysis.
All calculations were performed on Microsoft Excel 2016 (Microsoft Co., USA). The Drug and Statistics 3.2.7 (DAS 3.2.7) software package (Mathematical Pharmacology Professional Committee of China, China) was used to acquire the main pharmacokinetic parameters of ET-26-HCl. All data were shown as mean ± standard deviation (s.d.). Statistical significances were calculated by one-way analysis of variance (ANOVA).

The nature of series [3]: Tissue distribution in Sprague Dawley rats. The series is classed as in vivo. As to conditions: i.v. 4.2 mg kg^−1 ET-26-HCl. The protocol:
as §1
Sprague Dawley (SD) rats (200–240 g) were provided by the Animal Facility at Sichuan University (Chengdu, China). All rats received a single 4.2 mg kg^−1 dose of ET-26-HCl intravenously. Rats were sacrificed and tissues, including heart, spleen, lung, intestine, colon, kidney, brain, fat, stomach, liver, muscle, testis and ovary were collected at 0, 1, 3, 6 and 10 h post-dosing (six rats/time-point). Tissue samples were rinsed thrice in ice cold saline, and blotted dry with filter papers. Weighed amount of tissues were homogenized in normal saline (thrice the tissue weight, w/v) and homogenates were stored at −80°C until analysis.

Series [4] is described as follows: Excretion (urine, faeces, bile) in Sprague Dawley rats. The series is classed as in vivo. The protocol:
as §1
SD rats (4 male and 4 female) received 4.2 mg kg^−1 of ET-26-HCl intravenously and were housed in metabolic cages. Urine and faeces from the treated rats were collected between 0–6, 6–12, 12–24, 24–30, 30–36 and 36–48 h post-dosing. Urine volume and faeces weight were measured and recorded.
Bile fistulas of SD rats (four male and four female) were cannulated with polyethylene tube (Instech Laboratories, Inc., USA) and bile was collected at the following time-points: 0–3, 3–6, 6–9, 9–12 and 12–24 h post-dosing. The volume of the collected bile was measured and stored at −80°C until analysis.

Series [5] is described as follows: Stability in beagle plasma (LC-MS/MS). The series is classed as in vitro ADME. The procedure:
as §1

The conditions of series [6]: rats, i.v. ET-26-HCl; cited from earlier work.
[7] abbreviates: i.v. ET-26-HCl 4.2 mg kg^−1, collected to 48 h.

Molecules are shown by their SMILES. “Also recorded” adds a separate entry of the source.

Turning to `C[C@H](c1ccccc1)n1cncc1C(=O)OCCO` [M2], the “source (liver microsomes) in which detected” value in series [1] is listed as “every liver microsomal preparation; also recorded: human, monkey, dog, rat, mouse”.
As to `C[C@H](c1ccccc1)n1cncc1C(=O)O` [ET-26-acid], the “plasma concentration of ET-26-acid (in words)” value in series [2] is listed as “almost non-detectable; also recorded: almost undetectable”. Also, the “time for clearance from tissues” value in series [3] is recorded as “around 3 h”. Moreover, the “tissues with the highest concentration” value in series [3] was “plasma and liver”. Also, the “accumulative excretion through bile” value in series [4] (i.v. ET-26-HCl 4.2 mg kg^−1, bile collected to 24 h) is 0.027%. Moreover, the “accumulative excretion through faeces” value in series [4] (setting [7]) amounted to 0.080%. For the same molecule, the “accumulative excretion through urine” value in series [4] (setting [7]) amounted to 12.49%. The “Measured concentration (Mean ± SD)” value in series [5] (4◦C for 3 h, nominal 38.24 ng/mL) came to 39.92 ± 2.904 ng/mL; in series [5] (4◦C for 3 h, nominal 3186 ng/mL), 2890 ± 174.8 ng/mL; in series [5] (Freeze and Thaw Cycle (3), nominal 38.24 ng/mL) it was 36.23 ± 2.568 ng/mL; in series [5] (Freeze and Thaw Cycle (3), nominal 3186 ng/mL), 2770 ± 157.7 ng/mL; in series [5] (Room temperature 3 h, nominal 38.24 ng/mL), 38.29 ± 4.088 ng/mL; in series [5] (Room temperature 3 h, nominal 3186 ng/mL), 2890 ± 117.6 ng/mL. Also, the “Measured concentration (Mean ± SD)” value turned out to be 35.84 ± 1.899 ng/mL in series [5] (–80 ◦C for 30 days, nominal 38.24 ng/mL) and 3049 ± 391.4 ng/mL in series [5] (–80 ◦C for 30 days, nominal 3186 ng/mL). In series [6], the “plasma exposure of metabolite relative to parent (in words)” value is listed as “higher plasma exposure than the parent drug”.
